Reference: patent US8481524B2, “c-MET protein kinase inhibitors” (Vertex Pharmaceuticals Incorporated, priority 2007, dated 2013)
Entries after “also recorded” stand apart in the source; their conditions may differ.

Tested on: c-Met in Snu5 gastric carcinoma cells
Experiment: Inhibition of c-Met activity in Snu5 gastric carcinoma cells (Snu5-AP1-Luc-Pest luciferase signal)
Format: cell-based, human
Settings: for IC50: Homo sapiens, SNU-5, Snu5-AP1-Luc-Pest cells, 6 hours, Steady Glo luminescence; for activity compared with corresponding analog wherein R5 is hydrogen: Snu5 gastric carcinoma cell assay, comparison of IC50 values
Description: Compounds of the invention were also screened for their ability to inhibit the Luciferase-induced signal in an engineered Snu5 cell line. Snu5 [obtained from American Type Culture Collection (Catalog number CRL-5973)] is a human gastric carcinoma known to overexpress c-Met, which is constitutively active. The cell line was transduced with the retrovirus, pCLPCX, which contains a genetic construct consisting of 6×AP1 promoter response elements and a luciferase gene having a C-terminal PEST sequence (proteolytic signal from mouse ornithine decarboxylase, which reduces the half-life of the luciferase). The constitutively active cMet activates cellular pathways (principally MAP kinase), resulting in AP-1-induced transcription of luciferase-PEST and translation into the final product, the activity of which is quantifiable as a chemiluminescent readout upon the addition of luciferin (Steady-Glo from Promega.). Residual luminescence is strongly correlated to the inhibition of c-Met. A stable cell line was obtained by selecting the new cell line (Snu5-AP1-Luc-Pest) with puromycin. The cells were grown in complete media [Iscove's media (Invitrogen) containing 10% fetal bovine serum (FBS, Hyclone) and penicillin/gentamycin (Invitrogen)]. Compounds of the invention were dissolved in DMSO to make 10 mM initial stock solutions. Serial dilutions in DMSO were then made and transferred to complete medium to make a 10× solution. The Snu5-AP1-Luc-Pest cells were counted and diluted to 200,000-cells/mL solution. The cells (90 μL) were added to each well in a 96-well black with clear bottom plate (Costar). Then 10 μL of the 10× compound solution was added to the cells in triplicate. The plates were incubated in a 37° C./5% CO2 incubator. After 6 hours, 50 μL of the Steady Glo reagent (Promega) was added to each well and placed on a plate shaker for 5 minutes to ensure that the cells were completely lysed. The plate was read on a 1450 Microbeta Liquid Scintillation and Luminescence Counter (Perkin-Elmer). The IC50s were calculated using a 4-parameter fit using the graphing software Prism (GraphPad).

Row | IC50 [nM] | SMILES | activity compared with corresponding analog wherein R5 is hydrogen
1 | ≤ 100 | COc1ccc(-n2nnnc2-c2cc(-c3cn(C4CCNCC4)nc3C(F)(F)F)cnc2N)c(F)c1F [Compound 36] | more active
2 | 100 to 1000 | Cc1cc(C2CCNCC2)sc1-c1cnc(N)c(-c2nnnn2-c2ccc(C)c(F)c2F)c1 [Compound 31] | more active; also recorded: the unsubstituted compound has a lower IC50 value
3 | 100 to 1000 | Cc1ccc(-n2nnnc2-c2cc(-c3cnn([C@H]4CCNC4)c3)cnc2N)c(F)c1F [Compound 7] | more active
4 | ≤ 100 | COc1ccc(-n2nnnc2-c2cc(-c3cc4c(s3)CCNCC4)cnc2N)c(F)c1F [Compound 15] | more active
